In patent publication US8808771B2, “Active ingredient delivery system with an amorphous metal salt as carrier” (Firmenich SA, priority 2006, dated 2014):

Experiment: Extinction coefficient (phenol band at 280 nm) before and after addition of ACAP, entrapment of naringin
Assay type: physicochemical
Settings: for E-value (extinction coefficient, phenol band at 280 nm): diluted 1:12 with 30 wt % ethanolic solution, slightly acidic
Method: A conventional double jet precipitation process, which can be operated both batch wise and in a continuous mode, was used. The active ingredient (Naringin) was firstly dissolved in ethanol or ethanol/water medium. A first stream comprising Ca^2+ ions (provided as calcium chloride solution) and a second stream comprising PO4^3− ions (provided as sodium phosphate), were prepared in order to give a resulting carrier component comprising ACAP solution at 10 g/L. A third stream comprising a standard solution of 2 g/L of naringin in 30% ethanol solution was then prepared.
The three streams were jetted separately into a mixing chamber using a standard y-mixer with the reaction being stopped for equal volumes, i.e. 10 ml Ca^2+ stock solution plus 10 ml PO4^3− stock solution into 10 ml naringin. The extinction coefficient (strong phenol band at 280 nm, slightly acidic conditions) was determined after standardized dilution with 30 wt % ethanolic solution (1:12) and was compared before and after the addition of the ACAP.

E-value (extinction coefficient, phenol band at 280 nm) (after addition of ACAP): 1.5
E-value (extinction coefficient, phenol band at 280 nm) (before addition of ACAP): 3.75
naringin entrapped by the ACAP (calculated from the lowering of the E-value): at least 70%
SMILES: C[C@@H]1O[C@@H](O[C@H]2[C@H](Oc3cc(O)c4c(c3)O[C@H](c3ccc(O)cc3)CC4=O)O[C@H](CO)[C@@H](O)[C@@H]2O)[C@H](O)[C@H](O)[C@H]1O [naringin, Naringin]
